{
  "source": "paper PMC10412597",
  "about": "“Small molecule branched-chain ketoacid dehydrogenase kinase (BDK) inhibitors with opposing effects on BDK protein levels” (Nature Communications, 2023)",
  "parameters_in_all_cases": "Invitrogen kinase panel, per cent inhibition of kinase activity",
  "key": {"ABL1": {"target": "ABL1 (Homo sapiens, UniProt P00519)", "sequence (P00519 whole entry)": "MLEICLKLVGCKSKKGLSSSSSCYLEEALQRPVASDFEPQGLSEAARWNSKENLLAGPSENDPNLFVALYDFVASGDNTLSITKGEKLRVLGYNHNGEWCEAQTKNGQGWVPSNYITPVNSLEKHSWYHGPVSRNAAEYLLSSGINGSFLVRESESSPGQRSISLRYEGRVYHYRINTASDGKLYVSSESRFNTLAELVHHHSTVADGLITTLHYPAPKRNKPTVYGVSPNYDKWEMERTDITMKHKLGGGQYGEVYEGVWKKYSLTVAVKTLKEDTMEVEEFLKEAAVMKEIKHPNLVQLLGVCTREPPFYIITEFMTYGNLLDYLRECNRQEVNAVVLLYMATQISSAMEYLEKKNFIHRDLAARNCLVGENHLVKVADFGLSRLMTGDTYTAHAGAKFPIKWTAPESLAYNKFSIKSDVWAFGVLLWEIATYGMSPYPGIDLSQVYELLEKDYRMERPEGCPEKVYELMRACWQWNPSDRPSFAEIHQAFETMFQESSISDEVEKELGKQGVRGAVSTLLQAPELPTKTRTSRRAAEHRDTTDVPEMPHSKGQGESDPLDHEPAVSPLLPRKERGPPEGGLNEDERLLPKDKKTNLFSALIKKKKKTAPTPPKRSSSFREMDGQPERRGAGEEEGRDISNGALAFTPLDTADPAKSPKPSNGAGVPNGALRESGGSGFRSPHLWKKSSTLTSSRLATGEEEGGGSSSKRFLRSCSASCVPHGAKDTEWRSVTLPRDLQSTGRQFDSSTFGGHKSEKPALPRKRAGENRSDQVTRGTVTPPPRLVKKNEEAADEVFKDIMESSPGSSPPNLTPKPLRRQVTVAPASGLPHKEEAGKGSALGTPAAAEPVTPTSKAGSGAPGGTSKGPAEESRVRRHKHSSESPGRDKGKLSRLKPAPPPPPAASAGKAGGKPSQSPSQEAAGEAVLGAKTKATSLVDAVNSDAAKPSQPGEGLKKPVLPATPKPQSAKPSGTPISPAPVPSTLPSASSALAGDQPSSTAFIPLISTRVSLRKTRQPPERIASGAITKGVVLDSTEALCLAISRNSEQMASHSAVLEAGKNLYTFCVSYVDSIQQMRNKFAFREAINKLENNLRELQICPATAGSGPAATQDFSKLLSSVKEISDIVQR", "settings": "10 µM, inhibitor", "procedure": "(§1) To discover a potent and selective BDK inhibitor, a subset of the Pfizer compound collection was screened. […] Off target activity was assessed in both CEREP and kinase panels (Supplementary Tables 2, 3)."}, "MAPK12": {"target": "MAPK12 (Homo sapiens, UniProt P53778)", "sequence (P53778 whole entry)": "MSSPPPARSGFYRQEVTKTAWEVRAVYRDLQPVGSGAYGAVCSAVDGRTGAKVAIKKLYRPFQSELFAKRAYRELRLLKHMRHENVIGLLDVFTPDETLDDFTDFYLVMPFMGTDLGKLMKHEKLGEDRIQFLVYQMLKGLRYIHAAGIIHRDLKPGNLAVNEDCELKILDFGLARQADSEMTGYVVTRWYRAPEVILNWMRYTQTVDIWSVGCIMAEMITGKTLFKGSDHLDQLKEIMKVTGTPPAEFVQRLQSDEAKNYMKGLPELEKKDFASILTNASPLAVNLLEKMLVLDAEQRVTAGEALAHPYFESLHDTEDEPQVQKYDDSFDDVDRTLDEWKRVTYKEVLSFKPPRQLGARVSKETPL", "settings": "10 µM, inhibitor", "in_short": "(§2)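 These are secondary selectivity data for BDK inhibitors, taken from kinase panels.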"}, "CSNK1A1": {"target": "CSNK1A1 (Homo sapiens, UniProt P48729)", "sequence (P48729 whole entry)": "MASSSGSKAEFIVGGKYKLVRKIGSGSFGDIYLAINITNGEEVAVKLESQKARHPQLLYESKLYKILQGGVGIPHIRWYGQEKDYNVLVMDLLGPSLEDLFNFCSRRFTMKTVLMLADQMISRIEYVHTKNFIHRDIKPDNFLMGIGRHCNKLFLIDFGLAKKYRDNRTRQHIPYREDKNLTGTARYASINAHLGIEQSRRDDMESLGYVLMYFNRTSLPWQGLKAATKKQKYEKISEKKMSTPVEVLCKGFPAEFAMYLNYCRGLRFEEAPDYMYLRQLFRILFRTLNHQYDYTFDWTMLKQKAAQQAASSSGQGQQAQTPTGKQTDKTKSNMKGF", "settings": "10 µM, inhibitor", "procedure": "as §1"}, "MAPK13": {"target": "MAPK13 (Homo sapiens, UniProt O15264)", "sequence (O15264 whole entry)": "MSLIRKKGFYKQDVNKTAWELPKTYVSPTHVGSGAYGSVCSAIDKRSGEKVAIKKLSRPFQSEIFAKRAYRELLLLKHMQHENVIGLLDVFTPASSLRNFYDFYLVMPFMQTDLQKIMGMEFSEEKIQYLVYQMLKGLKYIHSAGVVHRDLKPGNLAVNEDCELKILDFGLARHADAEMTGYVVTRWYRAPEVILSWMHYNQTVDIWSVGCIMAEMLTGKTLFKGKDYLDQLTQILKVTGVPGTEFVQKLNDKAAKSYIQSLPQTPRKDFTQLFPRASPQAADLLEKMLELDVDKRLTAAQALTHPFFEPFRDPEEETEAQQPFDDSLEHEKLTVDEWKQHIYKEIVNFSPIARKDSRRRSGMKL", "settings": "10 µM, inhibitor", "in_short": "as §2"}, "SPHK2": {"target": "SPHK2 (Homo sapiens, UniProt Q9NRA0)", "sequence (Q9NRA0 whole entry)": "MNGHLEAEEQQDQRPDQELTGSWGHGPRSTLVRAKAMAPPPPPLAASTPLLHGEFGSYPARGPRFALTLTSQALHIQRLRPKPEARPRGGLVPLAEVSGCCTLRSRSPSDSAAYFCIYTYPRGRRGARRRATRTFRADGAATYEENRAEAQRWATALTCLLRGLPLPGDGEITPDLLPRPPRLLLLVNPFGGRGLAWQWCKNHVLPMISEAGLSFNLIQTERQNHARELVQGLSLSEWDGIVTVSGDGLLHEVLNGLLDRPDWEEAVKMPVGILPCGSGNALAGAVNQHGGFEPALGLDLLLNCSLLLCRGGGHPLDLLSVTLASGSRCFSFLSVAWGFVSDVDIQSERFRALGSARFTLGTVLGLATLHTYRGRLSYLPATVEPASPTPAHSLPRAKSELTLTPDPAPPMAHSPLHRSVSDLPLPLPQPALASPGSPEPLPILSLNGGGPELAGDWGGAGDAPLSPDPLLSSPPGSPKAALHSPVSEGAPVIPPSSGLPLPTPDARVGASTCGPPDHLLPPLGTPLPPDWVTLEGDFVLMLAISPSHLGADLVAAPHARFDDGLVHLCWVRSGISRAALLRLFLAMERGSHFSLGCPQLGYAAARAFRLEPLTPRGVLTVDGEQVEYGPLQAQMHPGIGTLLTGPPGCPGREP", "settings": "inhibitor", "procedure": "as §1"}, "PRKCB2": {"target": "T1, PRKCB2 (Homo sapiens, UniProt P05771)", "T1 construct": "gene PRKCB; isoform beta2", "T1 sequence (P05771 whole entry, canonical isoform)": "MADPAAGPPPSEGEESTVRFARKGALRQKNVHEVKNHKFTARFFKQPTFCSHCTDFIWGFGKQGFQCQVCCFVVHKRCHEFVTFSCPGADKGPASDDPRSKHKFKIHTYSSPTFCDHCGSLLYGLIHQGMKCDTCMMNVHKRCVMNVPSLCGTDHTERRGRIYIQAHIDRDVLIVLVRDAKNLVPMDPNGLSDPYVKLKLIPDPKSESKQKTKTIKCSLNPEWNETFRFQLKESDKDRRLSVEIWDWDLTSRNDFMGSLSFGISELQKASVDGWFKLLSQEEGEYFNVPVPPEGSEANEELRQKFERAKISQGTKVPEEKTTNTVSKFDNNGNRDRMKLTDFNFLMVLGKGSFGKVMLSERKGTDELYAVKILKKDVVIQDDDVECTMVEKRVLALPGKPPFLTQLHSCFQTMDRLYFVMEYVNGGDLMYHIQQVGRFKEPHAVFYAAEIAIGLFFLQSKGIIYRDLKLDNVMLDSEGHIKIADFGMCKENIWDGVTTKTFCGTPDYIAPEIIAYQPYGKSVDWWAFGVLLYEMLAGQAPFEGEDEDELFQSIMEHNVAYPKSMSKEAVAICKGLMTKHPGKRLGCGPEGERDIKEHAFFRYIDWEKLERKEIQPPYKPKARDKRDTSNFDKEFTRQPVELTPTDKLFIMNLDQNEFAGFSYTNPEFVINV", "settings": "10 µM, inhibitor", "procedure": "as §1"}, "SRPK1": {"target": "SRPK1 (Homo sapiens, UniProt Q96SB4)", "settings": "10 µM, inhibitor", "in_short": "as §2"}, "PIK3CG": {"target": "PIK3CG (Homo sapiens, UniProt P48736)", "settings": "10 µM, inhibitor", "in_short": "as §2"}, "mTOR": {"target": "mTOR (Homo sapiens, UniProt P42345)", "settings": "10 µM, inhibitor", "in_short": "as §2"}, "IRAK4": {"target": "T2, IRAK4 (Homo sapiens, UniProt Q9NWZ3)", "T2 sequence (Q9NWZ3 1-460)": "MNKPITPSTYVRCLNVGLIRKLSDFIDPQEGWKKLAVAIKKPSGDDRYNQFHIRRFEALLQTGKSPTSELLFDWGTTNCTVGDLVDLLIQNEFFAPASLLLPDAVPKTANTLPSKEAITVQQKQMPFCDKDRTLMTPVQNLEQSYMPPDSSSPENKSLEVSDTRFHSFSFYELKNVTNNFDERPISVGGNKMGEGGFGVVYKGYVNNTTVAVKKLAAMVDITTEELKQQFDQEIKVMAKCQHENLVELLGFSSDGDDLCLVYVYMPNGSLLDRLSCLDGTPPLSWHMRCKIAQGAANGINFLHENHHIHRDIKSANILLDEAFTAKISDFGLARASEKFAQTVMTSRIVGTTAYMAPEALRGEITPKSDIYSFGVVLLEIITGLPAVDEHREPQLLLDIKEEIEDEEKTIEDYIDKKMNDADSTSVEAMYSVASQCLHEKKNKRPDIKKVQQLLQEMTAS", "settings": "10 µM, inhibitor", "procedure": "as §1"}, "PIK3CD": {"target": "PIK3CD (Homo sapiens, UniProt O00329)", "settings": "10 µM, inhibitor", "in_short": "as §2"}, "JAK3": {"target": "T3, JAK3 (Homo sapiens, UniProt P52333)", "T3 sequence (P52333 1-1124)": "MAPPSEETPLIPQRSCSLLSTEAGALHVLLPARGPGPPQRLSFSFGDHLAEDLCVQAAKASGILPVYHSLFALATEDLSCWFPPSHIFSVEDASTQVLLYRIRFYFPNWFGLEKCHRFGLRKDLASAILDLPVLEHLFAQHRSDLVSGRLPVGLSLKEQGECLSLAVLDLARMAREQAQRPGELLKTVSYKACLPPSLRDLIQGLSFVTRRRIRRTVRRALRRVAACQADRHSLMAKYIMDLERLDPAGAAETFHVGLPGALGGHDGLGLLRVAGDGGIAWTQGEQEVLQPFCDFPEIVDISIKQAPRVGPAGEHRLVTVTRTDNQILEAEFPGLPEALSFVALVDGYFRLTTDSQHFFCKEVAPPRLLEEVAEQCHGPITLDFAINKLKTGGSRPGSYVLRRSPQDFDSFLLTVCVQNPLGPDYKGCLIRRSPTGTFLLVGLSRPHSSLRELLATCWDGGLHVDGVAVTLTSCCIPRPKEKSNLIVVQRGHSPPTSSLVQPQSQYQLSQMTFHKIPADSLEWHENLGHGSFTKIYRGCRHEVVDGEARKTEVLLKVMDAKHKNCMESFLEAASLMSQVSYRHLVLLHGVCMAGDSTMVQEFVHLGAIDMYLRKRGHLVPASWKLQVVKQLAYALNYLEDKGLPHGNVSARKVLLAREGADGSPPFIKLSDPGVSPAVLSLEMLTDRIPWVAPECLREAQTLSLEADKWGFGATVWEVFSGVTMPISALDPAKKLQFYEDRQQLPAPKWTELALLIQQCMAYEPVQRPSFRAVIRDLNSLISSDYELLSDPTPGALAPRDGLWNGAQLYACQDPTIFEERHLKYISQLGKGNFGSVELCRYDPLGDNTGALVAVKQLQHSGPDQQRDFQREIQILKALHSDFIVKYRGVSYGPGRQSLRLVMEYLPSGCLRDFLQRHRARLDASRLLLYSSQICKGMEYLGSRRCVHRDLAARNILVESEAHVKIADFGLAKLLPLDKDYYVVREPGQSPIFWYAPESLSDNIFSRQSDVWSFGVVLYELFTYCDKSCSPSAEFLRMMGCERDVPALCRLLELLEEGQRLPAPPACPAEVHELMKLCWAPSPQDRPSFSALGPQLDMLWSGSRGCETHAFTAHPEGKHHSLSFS", "settings": "10 µM, inhibitor", "procedure": "as §1"}, "PIK3CB": {"target": "PIK3CB (Homo sapiens, UniProt P42338)", "sequence (P42338 whole entry)": "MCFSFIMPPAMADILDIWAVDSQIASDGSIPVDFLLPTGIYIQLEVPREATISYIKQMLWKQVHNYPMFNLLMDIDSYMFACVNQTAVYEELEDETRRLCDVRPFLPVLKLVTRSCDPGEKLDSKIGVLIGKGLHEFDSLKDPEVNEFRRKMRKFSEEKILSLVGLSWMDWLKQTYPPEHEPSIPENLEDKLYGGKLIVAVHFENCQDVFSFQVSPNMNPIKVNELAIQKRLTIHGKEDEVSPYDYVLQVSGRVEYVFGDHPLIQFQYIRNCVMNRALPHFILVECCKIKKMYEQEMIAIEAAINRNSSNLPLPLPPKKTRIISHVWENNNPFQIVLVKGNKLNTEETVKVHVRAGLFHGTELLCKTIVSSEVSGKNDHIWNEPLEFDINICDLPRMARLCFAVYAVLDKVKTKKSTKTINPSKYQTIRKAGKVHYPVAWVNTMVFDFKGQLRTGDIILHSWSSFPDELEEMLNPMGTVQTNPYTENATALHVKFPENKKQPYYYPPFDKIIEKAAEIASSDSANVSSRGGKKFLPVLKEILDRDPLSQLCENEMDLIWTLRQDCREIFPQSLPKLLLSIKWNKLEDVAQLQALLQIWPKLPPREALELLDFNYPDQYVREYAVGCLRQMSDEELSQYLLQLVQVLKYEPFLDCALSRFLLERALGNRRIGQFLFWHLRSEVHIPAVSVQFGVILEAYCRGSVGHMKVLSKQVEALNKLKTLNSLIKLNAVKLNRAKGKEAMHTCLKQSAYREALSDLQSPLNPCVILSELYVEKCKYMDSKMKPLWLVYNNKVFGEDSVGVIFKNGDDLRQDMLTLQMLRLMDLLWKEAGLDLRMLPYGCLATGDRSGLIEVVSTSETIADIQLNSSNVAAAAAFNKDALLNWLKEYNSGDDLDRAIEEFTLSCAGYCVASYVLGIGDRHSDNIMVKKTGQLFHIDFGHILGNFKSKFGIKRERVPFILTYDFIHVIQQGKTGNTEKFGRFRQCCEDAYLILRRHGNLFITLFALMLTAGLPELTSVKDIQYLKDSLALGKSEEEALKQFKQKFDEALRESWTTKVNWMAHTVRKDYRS", "settings": "10 µM, inhibitor", "in_short": "as §2"}},
  "data": [
    {"smiles": "O=C(O)c1sc2cc(F)sc2c1Cl", "note": "[PF-07208254, 3-chloro-5-fluorothieno[3,2-b]thiophene-2-carboxylic acid]", "values": [
      {"measurement": "ATP = 1 mM % Inhibition PF-07208254", "setting": "ABL1", "result": -0.5, "unit": "%"},
      {"measurement": "ATP = Km % Inhibition PF-07208254", "setting": "ABL1", "result": 9.0, "unit": "%"},
      {"measurement": "ATP = Km % Inhibition PF-07208254", "setting": "MAPK12", "result": 13.3, "unit": "%"},
      {"measurement": "ATP = 1 mM % Inhibition PF-07208254", "setting": "CSNK1A1", "result": -0.6, "unit": "%"},
      {"measurement": "ATP = Km % Inhibition PF-07208254", "setting": "CSNK1A1", "result": 9.2, "unit": "%"},
      {"measurement": "ATP = Km % Inhibition PF-07208254", "setting": "MAPK13", "result": 3.6, "unit": "%"},
      {"measurement": "ATP = 10 uM % Inhibition PF-07208254", "setting": "SPHK2", "result": -11.8, "unit": "%"},
      {"measurement": "ATP = 1 mM % Inhibition PF-07208254", "setting": "PRKCB2", "result": 1.9, "unit": "%"},
      {"measurement": "ATP = Km % Inhibition PF-07208254", "setting": "PRKCB2", "result": -1.7, "unit": "%"},
      {"measurement": "ATP = Km % Inhibition PF-07208254", "setting": "SRPK1", "result": 2.8, "unit": "%"},
      {"measurement": "ATP = Km % Inhibition PF-07208254", "setting": "PIK3CG", "result": 4.8, "unit": "%"},
      {"measurement": "ATP = Km % Inhibition PF-07208254", "setting": "mTOR", "result": 5.1, "unit": "%"},
      {"measurement": "ATP = 1 mM % Inhibition PF-07208254", "setting": "IRAK4", "result": -2.1, "unit": "%"},
      {"measurement": "ATP = Km % Inhibition PF-07208254", "setting": "IRAK4", "result": 6.2, "unit": "%"},
      {"measurement": "ATP = Km % Inhibition PF-07208254", "setting": "PIK3CD", "result": 6.4, "unit": "%"},
      {"measurement": "ATP = 1 mM % Inhibition PF-07208254", "setting": "JAK3", "result": -4.1, "unit": "%"},
      {"measurement": "ATP = Km % Inhibition PF-07208254", "setting": "JAK3", "result": 0.9, "unit": "%"},
      {"measurement": "ATP = Km % Inhibition PF-07208254", "setting": "PIK3CB", "result": 3.1, "unit": "%"}
    ]},
    {"smiles": "CCC1(COc2ccc(-c3csc(-c4ccccc4C(=O)O)n3)cn2)CC1", "note": "[PF-07247685, 2-(4-{6-[(1-ethylcyclopropyl)methoxy]pyridin-3-yl}-1,3-thiazol-2-yl)benzoic acid]", "values": [
      {"measurement": "ATP = 1 mM % Inhibition PF-07247685", "setting": "ABL1", "result": 0.9, "unit": "%"},
      {"measurement": "ATP = Km % Inhibition PF-07247685", "setting": "ABL1", "result": 5.1, "unit": "%"},
      {"measurement": "ATP = Km % Inhibition PF-07247685", "setting": "MAPK12", "result": 4.6, "unit": "%"},
      {"measurement": "ATP = 1 mM % Inhibition PF-07247685", "setting": "CSNK1A1", "result": 2.1, "unit": "%"},
      {"measurement": "ATP = Km % Inhibition PF-07247685", "setting": "CSNK1A1", "result": 3.1, "unit": "%"},
      {"measurement": "ATP = Km % Inhibition PF-07247685", "setting": "MAPK13", "result": -0.7, "unit": "%"},
      {"measurement": "ATP = 10 uM % Inhibition PF-07247685", "setting": "SPHK2", "result": 3.9, "unit": "%"},
      {"measurement": "ATP = 1 mM % Inhibition PF-07247685", "setting": "PRKCB2", "result": 4.0, "unit": "%"},
      {"measurement": "ATP = Km % Inhibition PF-07247685", "setting": "PRKCB2", "result": 9.4, "unit": "%"},
      {"measurement": "ATP = Km % Inhibition PF-07247685", "setting": "SRPK1", "result": 12.6, "unit": "%"},
      {"measurement": "ATP = Km % Inhibition PF-07247685", "setting": "PIK3CG", "result": -4.6, "unit": "%"},
      {"measurement": "ATP = Km % Inhibition PF-07247685", "setting": "mTOR", "result": 0.4, "unit": "%"},
      {"measurement": "ATP = 1 mM % Inhibition PF-07247685", "setting": "IRAK4", "result": 2.9, "unit": "%"},
      {"measurement": "ATP = Km % Inhibition PF-07247685", "setting": "IRAK4", "result": -0.9, "unit": "%"},
      {"measurement": "ATP = Km % Inhibition PF-07247685", "setting": "PIK3CD", "result": -7.0, "unit": "%"},
      {"measurement": "ATP = 1 mM % Inhibition PF-07247685", "setting": "JAK3", "result": -0.0, "unit": "%"},
      {"measurement": "ATP = Km % Inhibition PF-07247685", "setting": "JAK3", "result": 0.8, "unit": "%"},
      {"measurement": "ATP = Km % Inhibition PF-07247685", "setting": "PIK3CB", "result": -3.5, "unit": "%"}
    ]}
  ]
}
